Reference: patent US8367838B2, “Amines or amino alcohols as GLYT1 inhibitors” (Hoffmann-La Roche Inc., priority 2009, dated 2013)
Structures can show the parent of a compound that is named as a salt.

target: T1, mGlyT-1b (Mus musculus, UniProt P28571); assay: Glycine uptake inhibition assay (mGlyT-1b), [3H]-glycine uptake in transfected Flp-in-CHO cells; format: cell-based; conditions: Flp-in-CHO cells transfected with mGlyT-1b cDNA; [3H]-glycine 60 nM and 25 μM non-radioactive glycine; 20 min preincubation at 22° C.; read-out: IC50 (μM) at GlyT-1; Ic50 (hglyt1b)
T1 construct: host or cells: Flp-in-CHO
T1 sequence (P28571 1-651 isoform P28571-2): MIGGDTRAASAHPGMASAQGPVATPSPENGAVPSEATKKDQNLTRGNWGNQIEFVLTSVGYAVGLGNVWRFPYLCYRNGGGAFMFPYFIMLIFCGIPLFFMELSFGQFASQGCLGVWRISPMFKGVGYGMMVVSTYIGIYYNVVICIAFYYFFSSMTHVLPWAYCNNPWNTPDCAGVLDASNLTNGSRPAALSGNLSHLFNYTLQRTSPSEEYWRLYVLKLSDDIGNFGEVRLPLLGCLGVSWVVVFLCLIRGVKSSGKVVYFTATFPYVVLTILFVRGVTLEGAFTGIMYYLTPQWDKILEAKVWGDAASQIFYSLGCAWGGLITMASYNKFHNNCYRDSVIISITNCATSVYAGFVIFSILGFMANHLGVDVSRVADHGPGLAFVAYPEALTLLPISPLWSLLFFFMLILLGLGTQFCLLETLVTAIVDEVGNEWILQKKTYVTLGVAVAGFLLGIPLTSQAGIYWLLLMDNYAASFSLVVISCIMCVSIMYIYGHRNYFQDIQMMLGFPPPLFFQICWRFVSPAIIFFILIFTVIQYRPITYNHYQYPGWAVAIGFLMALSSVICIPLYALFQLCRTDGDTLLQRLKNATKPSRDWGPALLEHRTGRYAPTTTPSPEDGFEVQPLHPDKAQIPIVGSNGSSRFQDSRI
Procedure: Nutrient mixture F-12 (Gibco Life-technologies), fetal bovine serum (FBS) 5%, (Gibco life technologies), Penicillin/Streptomycin 1% (Gibco life technologies), Hygromycin 0.6 mg/ml (Gibco life technologies), Glutamine 1 mM Gibco life technologies).
150 mM NaCl, 10 mM Hepes-Tris, pH 7.4, 1 mM CaCl2, 2.5 mM KCl, 2.5 mM MgSO4, 10 mM (+) D-glucose. Flp-in™-CHO (Invitrogen Cat n° R758-07) cells stably transfected with mGlyT1b cDNA.
Glycine Uptake Inhibition Assay (mGlyT-1b)
On day 1 mammalian cells, (Flp-in™-CHO), transfected with mGlyT-1b cDNA, were plated at the density of 40,000 cells/well in complete F-12 medium, without hygromycin in 96-well culture plates. On day 2, the medium was aspirated and the cells were washed twice with uptake buffer (UB). The cells were then incubated for 20 min at 22° C. with either (i) no potential competitor, (ii) 10 mM non-radioactive glycine, (iii) a concentration of a potential inhibitor. A range of concentrations of the potential inhibitor was used to generate data for calculating the concentration of inhibitor resulting in 50% of the effect (e.g. IC50, the concentration of the competitor inhibiting glycine uptake of 50%). A solution was then immediately added containing [^3H]-glycine 60 nM (11-16 Ci/mmol) and 25 μM non-radioactive glycine. The plates were incubated with gentle shaking and the reaction was stopped by aspiration of the mixture and washing (three times) with ice-cold UB. The cells were lysed with scintillation liquid, shaken 3 hours and the radioactivity in the cells was counted using a scintillation counter.

Compound | IC50 [µM]
N[C@@H](c1ccc(Cl)c(Cl)c1)[C@H](O)c1ccc(OC2CCOC2)cn1 (mixture of isomers) [Example 23, rac-erythro-[rac-2-Amino-2-(3,4-dichloro-phenyl)-1-[5-(tetrahydro-furan-3-yloxy)-pyridin-2-yl]-ethanoldihydrochloride] | 0.16
Cc1ccc([C@H](N)[C@H](O)c2ccc(-c3cccnc3)cc2)cc1Cl (racemic) [Example 92, rac-erythro-2-Amino-2-(3-chloro-4-methyl-phenyl)-1-(4-pyridin-3-yl-phenyl)-ethanol] | 0.084
Cc1ccc([C@H](N)[C@H](O)c2ccc(OC3CCOCC3)cc2)cc1F (racemic) [Example 57, rac-erythro-2-Amino-2-(3-fluoro-4-methyl-phenyl)-1-[4-(tetrahydro-pyran-4-yloxy)-phenyl]-ethanol] | 0.202
N[C@@H](c1ccc(Cl)c(Cl)c1)[C@H](O)c1ccc(OCCC(F)(F)F)cc1 (racemic) [Example 52, rac-erythro-2-Amino-2-(3,4-dichloro-phenyl)-1-[4-(3,3,3-trifluoro-propoxy)-phenyl]-ethanol] | 0.772
N[C@@H](c1ccc(Cl)c(Cl)c1)[C@H](O)c1ccc(OC2CCOCC2)cn1 (racemic) [Example 25, rac-erythro-[2-Amino-2-(3,4-dichloro-phenyl)-1-[5-(tetrahydro-pyran-4-yloxy)-pyridin-2-yl]-ethanoldihydrochloride] | 0.216
N[C@@H](c1ccc(C(F)(F)F)c(F)c1)[C@H](O)c1ccc(-c2cccnc2)cc1 (racemic) [Example 95, rac-erythro-2-Amino-2-(3-fluoro-4-trifluoromethyl-phenyl)-1-(4-pyridin-3-yl-phenyl)-ethanol] | 0.158
Cc1ccc([C@H](N)[C@H](O)c2ccc(-c3cncc(F)c3)cc2)cc1Cl (racemic) [Example 93, rac-erythro-2-Amino-2-(3-chloro-4-methyl-phenyl)-1-[4-(5-fluoro-pyridin-3-yl)-phenyl]-ethanol] | 0.094
N[C@@H](c1ccc(Cl)c(Cl)c1)[C@H](O)c1ccc(-c2cncc(F)c2)cn1 (racemic) [Example 12, rac-erythro-[2-Amino-2-(3,4-dichloro-phenyl)-1-(5′-fluoro-[3,3′]bipyridinyl-6-yl)-ethanoltrihydrochloride] | 0.148
CO[C@H](c1ccc(-c2cccnc2)cc1)[C@@H](N)c1ccc(Cl)c(Cl)c1 (racemic) [Example 98, rac-erythro-1-(3,4-Dichloro-phenyl)-2-methoxy-2-(4-pyridin-3-yl-phenyl)-ethylamine dihydrochloride] | 0.388
Cc1cc(OC2CCOCC2)ncc1[C@@H](O)[C@@H](N)c1ccc(Cl)c(Cl)c1 (racemic) [Example 21, rac-erythro-[2-Amino-2-(3,4-dichloro-phenyl)-1-[4-methyl-6-(tetrahydro-pyran-4-yloxy)-pyridin-3-yl]-ethanoldihydrochloride] | 0.091
N[C@@H](c1ccc(Cl)cc1)[C@H](O)c1ccc(-c2cccc(C(F)(F)F)c2)cc1 (racemic) [Example 79, rac-erythro-2-Amino-2-(4-chloro-phenyl)-1-(3′-trifluoromethyl-biphenyl-4-yl)-ethanol] | 0.93
COc1cc(-c2cncc(F)c2)ccc1[C@@H](O)[C@@H](N)c1ccc(Cl)c(Cl)c1 (racemic) [Example 4, rac-erythro-[2-Amino-2-(3,4-dichloro-phenyl)-1-[4-(5-fluoro-pyridin-3-yl)-2-methoxy-phenyl]-ethanoldihydrochloride] | 0.346
C[Si](C)(C)c1ccc([C@@H](O)[C@@H](N)c2ccc(Cl)c(Cl)c2)cc1 (racemic) [Example 35, rac-erythro-[2-Amino-2-(3,4-dichloro-phenyl)-1-(4-trimethylsilanyl-phenyl)-ethanol trifluoroacetate] | 0.298
N[C@@H](c1ccc(Cl)c(Cl)c1)[C@H](O)c1ccc(OC2CCOCC2)cc1 (single isomer, unassigned) [Example 41, (1R,2S or 1S,2R)-[2-Amino-2-(3,4-dichloro-phenyl)-1-[4-(tetrahydro-pyran-4-yloxy)-phenyl]-ethanol] | 0.021
N[C@@H](c1ccc(Cl)cc1)[C@H](O)c1ccc(-c2ccccc2Cl)cc1 (racemic) [Example 73, rac-erythro-2-Amino-1-(2′-chloro-biphenyl-4-yl)-2-(4-chloro-phenyl)-ethanol] | 0.462
CC(C)(C)c1ccc([C@@H](O)[C@@H](N)c2ccc(Cl)c(Cl)c2)cc1 (racemic) [Example 37, rac-erythro-[2-Amino-1-(4-tert-butyl-phenyl)-2-(3,4-dichloro-phenyl)-ethanol trifluoroacetate] | 0.876
N[C@@H](c1ccc(Cl)c(Cl)c1)[C@H](O)c1cc(F)c(OC2CCOCC2)c(F)c1 (racemic) [Example 20, rac-erythro-[2-Amino-2-(3,4-dichloro-phenyl)-1-[3,5-difluoro-4-(tetrahydro-pyran-4-yloxy)-phenyl]-ethanol hydrochloride] | 0.09
N[C@@H](c1ccc(Cl)cc1)[C@H](O)c1ccc(OC2CCCC2)cc1 (racemic) [Example 48, rac-erythro-[2-Amino-2-(4-chloro-phenyl)-1-(4-cyclopentyloxy-phenyl)-ethanol hydrochloride] | 0.433
N[C@@H](c1ccc(Cl)c(Cl)c1)[C@H](O)c1ccc(-c2cncc(F)c2)cc1 (racemic) [Example 83, rac-erythro-2-Amino-2-(3,4-dichloro-phenyl)-1-[4-(5-fluoro-pyridin-3-yl)-phenyl]-ethanol] | 0.059
N[C@@H](c1ccc(Cl)cc1)[C@H](O)c1ccc(-c2cccc(OC(F)(F)F)c2)cc1 (racemic) [Example 78, rac-erythro-2-Amino-2-(4-chloro-phenyl)-1-(3′-trifluoromethoxy-biphenyl-4-yl)-ethanol] | 0.88
N[C@@H](c1ccc(Cl)cc1)[C@H](O)c1ccc(OC2CCCOC2)cc1 (mixture of isomers) [Example 9, rac-erythro-[2-Amino-2-(4-chloro-phenyl)-1-[4-(tetrahydro-pyran-3-yloxy)-phenyl]-ethanol] | 0.138
Cc1cc([C@H](N)[C@H](O)c2ccc(-c3cccnc3)cc2)ccc1Cl (racemic) [Example 86, rac-erythro-2-Amino-2-(4-chloro-3-methyl-phenyl)-1-(4-pyridin-3-yl-phenyl)-ethanol] | 0.049
N[C@@H](c1ccc(Cl)c(Cl)c1)[C@H](O)c1ccc(-c2cccc([N+](=O)[O-])c2)cc1 (racemic) [Example 103, rac-erythro-2-Amino-2-(3,4-dichloro-phenyl)-1-(3′-nitro-biphenyl-4-yl)-ethanol] | 0.412
N[C@@H](c1ccc(Cl)c(Cl)c1)[C@H](O)c1ccc(OCC2CCOCC2)cc1 (racemic) [Example 45, rac-erythro-[2-Amino-2-(3,4-dichloro-phenyl)-1-[4-(tetrahydro-pyran-4-ylmethoxy)-phenyl]-ethanol] | 0.147
N[C@@H](c1ccc(Cl)cc1)[C@H](O)c1ccc(OC2CCOCC2)cc1 (racemic) [Example 59, rac-erythro-2-Amino-2-(4-chloro-phenyl)-1-[4-(tetrahydro-pyran-4-yloxy)-phenyl]-ethanol] | 0.054
N[C@@H](c1ccc(Cl)cc1)[C@H](O)c1ccc(-c2ccccc2F)cc1 (racemic) [Example 68, rac-erythro-2-Amino-2-(4-chloro-phenyl)-1-(2′-fluoro-biphenyl-4-yl)-ethanol] | 0.18
N[C@@H](c1ccc(Cl)c(Cl)c1)[C@H](O)c1ccc(OCC(F)(F)F)cc1 (racemic) [Example 47, rac-erythro-[2-Amino-2-(3,4-dichloro-phenyl)-1-[4-(2,2,2-trifluoro-ethoxy)-phenyl]-ethanol] | 0.266
CC(C)Oc1ccc([C@@H](O)[C@@H](N)c2ccc(Cl)c(Cl)c2)nc1 (racemic) [Example 32, rac-erythro-[2-Amino-2-(3,4-dichloro-phenyl)-1-(5-isopropoxy-pyridin-2-yl)-ethanoldihydrochloride] | 0.842
